Test results: patent publication US6620961B1, “Biarylalkylenecarbamic acid derivatives and bacteriocides for agricultural and horticultural use” (Kumiai Chemical Industry Co., Ltd., priority 1997, dated 2003)

Columns and labels:
Erysiphe graminis = experiment: Test for Preventive Effect on Wheat Powdery Mildew; format: in vivo; design: key: A: No diseased area; B: Diseased area of less than 25%; C: Diseased area of at least 25% but less than 50%; Diseased area of at least 50%; details: wheat seedlings (Norin-61-go), 500 ppm active ingredient, 10 ml per pot, 10 days after inoculation
Procedure: [table] Test for Preventive Effect on Wheat Powdery Mildew 9 wheat seeds (variety: […] Then, the seedlings were inoculated with […] graminis spores in suspension and placed in a greenhouse at 25 to 30° C. 10 days after the inoculation, the total diseases area of the first leaves in each pot was observed and evaluated on the basis of the standards shown in Table 59. The results are shown in Tables 67 to 71.

Botrytis cinerea = experiment: Test for Preventive Effect on Cucumber Gray Mold; format: in vivo; design: key: A: No diseased area; B: Diseased area of less than 25%; C: Diseased area of at least 25% but less than 50%; Diseased area of at least 50%; details: cotyledonary cucumber seedlings (Sagami-hanziro), 500 ppm active ingredient, 10 ml per pot, 3 days after inoculation
Procedure: [table] Test for Preventive Effect on Cucumber Gray Mold 9 cucumber seeds (variety: Sagami-hanziro) were sown in each 9 cm−9 cm polyvinyl chloride pot and grown in a greenhouse for 7 days. […] Then, the seedlings were inoculated with milled Botrytis cinerea hyphae in solution by spraying and immediately placed in a moist chamber at 22° C. 3 days after the inoculation, the total diseased area in each pot was observed and evaluated on the basis of the standards shown in Table 59.

Venturia inaequalis = experiment: Test for Preventive Effect on Apple Scab; format: in vivo; design: key: A: No diseased area; B: Diseased area of less than 25%; C: Diseased area of at least 25% but less than 50%; Diseased area of at least 50%; details: 14 days after inoculation; for Evaluation (diseased area of the upper two inoculated leaves): apple seedlings (Kogyoku), 500 ppm active ingredient, 20 ml per pot; for Evaluation (diseased areas of the upper two of the inoculated leaves): apple seedlings, wettable powder at 500 ppm active ingredient, preventive
Procedure: [table] Test for Preventive Effect on Apple Scab 5 apple seeds (variety: Kogyoku) were sown in each 9 cm×9 cm polyvinyl chloride pot and grown in a greenhouse for 20 days. […] Then, the seedlings were inoculated with Venturia inaequalis spores in suspension by spraying and immediately placed in a moist chamber at 22° C. for 48 hours. Thereafter, the seedlings were placed in a greenhouse for development of the disease. 14 days after the inoculation, the diseased areas of the upper two of the inoculated leaves were observed and evaluated on the basis of the standards shown in Table 59.

[1] = tested on: Pseudoperonospora cubensis; experiment: Test for Preventive Effect on Cucumber Downy Mildew; format: in vivo; design: key: A: No diseased area; B: Diseased area of less than 25%; C: Diseased area of at least 25% but less than 50%; Diseased area of at least 50%; details: cucumber seedlings, wettable powder at 500 ppm active ingredient, 7 days after inoculation
Procedure: Test for Preventive Effect on Cucumber Downy Mildew 9 cucumber seeds (variety: Sagami-hanpaku) were sown in each 9 cmx9 cm polyvinyl chloride pot and grown in a greenhouse for 7 days. […] Then, the seedlings were inoculated with Pseudoperonospora cubensis zoosporangia in suspension by spraying and immediately placed in a moist chamber at 22° C. for 24 hours. Thereafter, the seedlings were placed in a greenhouse. 7 days after the inoculation, the total diseased area in each pot was observed and evaluated on the basis of the standards shown in Table 59. [table]

Row | Structure (SMILES) | Evaluation (total diseased area of the first leaves in each pot) (Erysiphe graminis) | Evaluation (total diseased area in each pot) (Botrytis cinerea) | Evaluation (diseased area of the upper two inoculated leaves) (Venturia inaequalis) | melting point [°C] | Evaluation (diseased areas of the upper two of the inoculated leaves) (Venturia inaequalis) | Evaluation (total diseased area in each pot) [1]
1 | COC(=O)NC(C)c1cccc(-c2ccc(Cl)cc2)c1 (racemic) [3-5] | B (Diseased area of less than 25%) | B (Diseased area of less than 25%) | A | – | – | –
2 | COC(=O)NC(C)c1cc(-c2ccc(F)cc2)ccc1F (racemic) [3-28] | B (Diseased area of less than 25%) | B (Diseased area of less than 25%) | A | – | – | –
3 | COC(=O)NC(C)c1cc(-c2ccc(Cl)cc2)ccc1F (racemic) [3-30] | B (Diseased area of less than 25%) | B (Diseased area of less than 25%) | B (Diseased area of less than 25%) | – | – | –
4 | COC(=O)NCc1cccc(-c2ccccc2)c1 [1-1, Methyl N-(3-phenylbenzyl)carbamate] | A | – | – | 49 to 52 | A | –
5 | COC(=O)NCc1cccc(-c2ccc(Cl)cc2)c1 [1-4] | B (Diseased area of less than 25%) | A | – | – | A | –
6 | COC(=O)NCc1cccc(-c2cccc(C)c2)c1 [1-11] | A | B (Diseased area of less than 25%) | – | – | A | A
7 | COC(=O)NCc1cccc(-c2ccc(C)cc2)c1 [1-12] | A | A | – | – | A | B (Diseased area of less than 25%)
8 | COC(=O)NCc1cccc(-c2ccc(C(F)(F)F)cc2)c1 [1-35] | A | B (Diseased area of less than 25%) | – | – | A | –
9 | COC(=O)NCc1cccc(-c2ccc(OC)cc2)c1 [1-42] | B (Diseased area of less than 25%) | B (Diseased area of less than 25%) | – | – | A | –
10 | CC(C)OC(=O)NCc1cccc(-c2ccccc2)c1 [1-150, Isopropyl N-(3-phenylbenzyl)carbamate] | B (Diseased area of less than 25%) | – | – | 61 to 64 | – | –
11 | COC(=O)NCc1cccc(-c2ccccc2)c1C [2-1, Methyl N-(2-methyl-3-phenylbenzyl)carbamate] | A | – | – | 91 to 94 | – | –
12 | COC(=O)NCc1ccc(OC)c(-c2ccccc2)c1 [2-65] | – | B (Diseased area of less than 25%) | – | – | B (Diseased area of less than 25%) | –
13 | COC(=O)NCc1cc(-c2cccc(C)c2)ccc1F [2-109] | A | – | – | – | A | A
14 | COC(=O)NCc1cc(-c2ccc(C)cc2)ccc1F [2-110] | B (Diseased area of less than 25%) | – | – | – | A | A
15 | CCc1cccc(-c2ccc(F)c(CNC(=O)OC)c2)c1 [2-111] | B (Diseased area of less than 25%) | B (Diseased area of less than 25%) | – | – | A | A
16 | COC(=O)NCc1cc(-c2cccc(C(C)C)c2)ccc1F [2-113] | A | – | – | – | A | B (Diseased area of less than 25%)
17 | COC(=O)NCc1cc(-c2cccc(Cl)c2)ccc1OC [2-331] | B (Diseased area of less than 25%) | A | A | – | – | A
18 | COC(=O)NCc1cc(-c2ccc(Cl)cc2)ccc1OC [2-332] | B (Diseased area of less than 25%) | B (Diseased area of less than 25%) | A | – | – | –
19 | COC(=O)NCc1cc(-c2cccc(C)c2)ccc1OC [2-333] | B (Diseased area of less than 25%) | – | A | – | – | A
20 | COC(=O)NCc1cc(-c2ccc(C)cc2)ccc1OC [2-334] | B (Diseased area of less than 25%) | A | A | – | – | B (Diseased area of less than 25%)
21 | COC(=O)NCc1cc(-c2cccc(C(F)(F)F)c2)ccc1OC [2-343] | B (Diseased area of less than 25%) | B (Diseased area of less than 25%) | A | – | – | A
22 | COC(=O)NCc1cc(-c2ccc(C)c(C)c2)ccc1OC [2-346] | A | B (Diseased area of less than 25%) | A | – | – | B (Diseased area of less than 25%)
23 | COC(=O)NCc1cc(-c2cccc(O)c2)ccc1Cl [2-448] | A | A | A | – | – | –
24 | COC(=O)NCc1cc(-c2cccc(C(C)=O)c2)ccc1Cl [2-450] | A | A | A | – | – | A
25 | COC(=O)NCc1cc(-c2ccc(Br)cc2)ccc1Cl [2-453] | A | A | A | – | – | –
26 | COC(=O)NCc1cc(-c2ccc(OC)c(OC)c2)ccc1Cl [2-455] | B (Diseased area of less than 25%) | B (Diseased area of less than 25%) | A | – | – | –
27 | COC(=O)NCc1cc(-c2ccc(C)cc2)ccc1I [2-551] | B (Diseased area of less than 25%) | B (Diseased area of less than 25%) | A | – | – | –
